From ChEMBL document CHEMBL4330129 (Bioorg Med Chem, 2019)
In brackets after ≈: the same amount, converted by molar mass. Activity calls are given as the source filed them. The calls are words filed in the database; no cut-off is given here.

Columns and labels:
[1] = (§1) Activation of Keap1/Cul3/Nrf2 in human BEAS2B cells assessed as increase in NQO1 levels measured after 48 hrs; type: cell-based; conditions: BEAS-2B
[2] = Binding affinity to FLAG/His-tagged Keap1 (unknown origin)/biotinylated full-length FLAG/His/Tev/Avi-tagged Cul3 (unknown origin) expressed in baculovirus infected Sf9 insect cells measured after 1 hr by TR-FRET assay; parameters: species or system Homo sapiens
Keap1/Nrf2 = Keap1/Nrf2 (Homo sapiens, UniProt Q14145+Q16236); test: Binding affinity to FLAG/His-tagged Keap1 (unknown origin)/biotinylated full-length FLAG/His/Tev/Avi-tagged NRF2 (unknown origin) expressed in baculovirus infected Sf9 insect cells measured after 1 hr by TR-FRET assay
Homo sapiens [3] = organism: Homo sapiens; test: Activation of Keap1/Cul3/Nrf2 in NHBE cells assessed as induction of HO-1 gene expression at 10 uM after 24 hrs by RT-PCR analysis relative to SFN; type: cell-based
[4] = Kinetic solubility of the compound at pH 7.4 by CLND method; type: physicochemical; conditions: buffer, read-out: Kinetic_solubility
[5] = Lipophilicity, log D of the compound at pH 7.4 by chromatographic method; type: physicochemical; conditions: buffer
[6] = molecular target: Kelch-like ECH-associated protein 1 (Homo sapiens) (UniProt Q14145); test: Binding affinity to wild-type human N-terminal His6-tagged Keap1 (35 to 178 residues) expressed in baculovirus infected Sf9 insect cells assessed as cysteine-compound adduct formation at 15-fold molar excess measured after 1 hr by RP-LC/MS/MS analysis
[7] = system: Kelch-like ECH-associated protein 1 (Homo sapiens), Q14145 [C151S]; test: Binding affinity to human N-terminal His6-tagged Keap1 C151S mutant (35 to 182 residues) expressed in baculovirus infected Sf9 insect cells assessed as cysteine-compound adduct formation at 15-fold molar excess measured after 1 hr by RP-LC/MS/MS analysis
[8] = Solubility of the compound in FaSSIF at pH 6.5 using solid sample; type: physicochemical
[9] = Stability of the compound at 23 degC using crystalline solid sample measured >3 years by LC/MS analysis; type: physicochemical
[10] = Stability of the compound at 23 degC using crystalline solid sample measured >3 years by 1H-NMR analysis; type: physicochemical
[11] = Apparent permeability across apical to basolateral side in MDCK-MDR1; type: ADME, cell-based, Canis lupus familiaris; conditions: dog
[12] = Apparent permeability across basolateral to apical side in MDCK-MDR1; type: ADME, cell-based, Canis lupus familiaris; conditions: dog
Homo sapiens [13] = organism: Homo sapiens; test: as §1; type: cell-based
BACH1/MafK = BACH1/MafK (Homo sapiens, UniProt O14867+O60675); test: Inhibition of Bach1-Mafk interaction (unknown origin) by luciferase reporter gene based enzyme fragment complementation assay; type: protein assay
Mus musculus [14] = test: (§2) Antioxidant activity in po dosed C57BL/6J mouse model of cigarette smoking-induced oxidative stress assessed as inhibition of neutrophil infiltration dosed 24 hrs prior to cigarette smoking followed by qd dosing with cigarette smoking for 3 days by Wright-Giemsa staining based hemocytometry; type: functional, organism-based
Mus musculus [15] = test: as §2, with “in” for “in po dosed”, “infiltration at 0.1 to 100 umol/kg, po” for “infiltration”; type: functional, organism-based
Mus musculus [16] = test: as §2, with “in” for “in po dosed”, “total cell” for “neutrophil”, “infiltration at 0.1 to 100 umol/kg, po” for “infiltration”; type: functional, organism-based
Mus musculus [17] = test: as §2, with “in” for “in po dosed”, “mononuclear cell” for “neutrophil”, “infiltration at 0.1 to 100 umol/kg, po” for “infiltration”; type: functional, organism-based
[18] = Drug metabolism in rat assessed as (2S)-2-amino-5-[[(1R)-2-(carboxymethylamino)-1-[3-[[2-(dimethylamino)-3,4-dioxo-cyclobuten-1-yl]-methyl-amino]propylcarbamothioylsulfanylmethyl]-2-oxo-ethyl]amino]-5-oxo-pentanoic acid formation at 2 mg/kg, po; type: ADME, organism-based; conditions: in vivo
[19] = Drug metabolism in rat assessed as (2R)-2-acetamido-3-[3-[[2-(dimethylamino)-3,4-dioxo-cyclobuten-1-yl]-methyl-amino]propylcarbamothioylsulfanyl]propanoic acid formation at 2 mg/kg, po; type: ADME, organism-based; conditions: in vivo

Sequence of Keap1/Nrf2 (Q16236 whole entry): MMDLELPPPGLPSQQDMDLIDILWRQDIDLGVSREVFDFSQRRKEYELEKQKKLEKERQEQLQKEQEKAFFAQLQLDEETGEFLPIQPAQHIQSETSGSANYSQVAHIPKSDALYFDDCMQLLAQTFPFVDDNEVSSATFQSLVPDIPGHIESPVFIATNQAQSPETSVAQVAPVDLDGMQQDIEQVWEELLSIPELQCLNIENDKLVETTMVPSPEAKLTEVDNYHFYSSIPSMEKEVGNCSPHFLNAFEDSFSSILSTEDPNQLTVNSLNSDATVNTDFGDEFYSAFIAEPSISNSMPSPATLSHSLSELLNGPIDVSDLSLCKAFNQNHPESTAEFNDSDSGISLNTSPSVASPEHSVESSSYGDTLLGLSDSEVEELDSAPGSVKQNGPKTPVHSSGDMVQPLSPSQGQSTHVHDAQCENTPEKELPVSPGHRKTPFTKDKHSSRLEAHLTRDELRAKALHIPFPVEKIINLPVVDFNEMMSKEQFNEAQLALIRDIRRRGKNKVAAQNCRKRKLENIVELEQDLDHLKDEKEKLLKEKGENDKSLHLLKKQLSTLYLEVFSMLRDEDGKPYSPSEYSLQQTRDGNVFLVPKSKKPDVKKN
Sequence of Keap1/Nrf2 (Q14145 whole entry): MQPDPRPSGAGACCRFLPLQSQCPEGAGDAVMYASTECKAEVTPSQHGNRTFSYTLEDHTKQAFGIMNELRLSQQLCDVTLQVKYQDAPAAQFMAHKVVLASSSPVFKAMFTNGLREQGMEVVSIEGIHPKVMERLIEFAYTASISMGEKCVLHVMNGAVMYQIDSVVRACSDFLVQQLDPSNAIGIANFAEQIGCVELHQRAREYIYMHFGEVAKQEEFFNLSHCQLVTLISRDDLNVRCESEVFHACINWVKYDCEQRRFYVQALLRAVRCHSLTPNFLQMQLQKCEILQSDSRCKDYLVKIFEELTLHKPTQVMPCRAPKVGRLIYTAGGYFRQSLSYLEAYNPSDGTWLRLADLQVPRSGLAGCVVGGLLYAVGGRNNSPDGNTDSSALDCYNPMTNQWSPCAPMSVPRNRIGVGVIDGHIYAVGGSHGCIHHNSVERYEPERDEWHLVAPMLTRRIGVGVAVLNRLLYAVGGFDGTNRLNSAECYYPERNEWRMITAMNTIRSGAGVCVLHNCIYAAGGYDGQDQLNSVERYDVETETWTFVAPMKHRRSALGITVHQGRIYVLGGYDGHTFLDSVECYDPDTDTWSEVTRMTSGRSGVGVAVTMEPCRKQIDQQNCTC
Sequence of Kelch-like ECH-associated protein 1 (Homo sapiens), Q14145 [C151S] (Q14145 whole entry C151S, the tested form may be a part): as the sequence (Q14145 whole entry) above, with C151S counted along it
Sequence of BACH1/MafK (O60675 whole entry, the tested form may be a part): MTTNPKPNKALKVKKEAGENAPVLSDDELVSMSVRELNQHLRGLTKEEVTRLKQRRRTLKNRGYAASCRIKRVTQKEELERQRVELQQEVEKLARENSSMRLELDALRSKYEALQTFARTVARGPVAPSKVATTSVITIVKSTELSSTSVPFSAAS
Sequence of BACH1/MafK (O14867 whole entry, the tested form may be a part): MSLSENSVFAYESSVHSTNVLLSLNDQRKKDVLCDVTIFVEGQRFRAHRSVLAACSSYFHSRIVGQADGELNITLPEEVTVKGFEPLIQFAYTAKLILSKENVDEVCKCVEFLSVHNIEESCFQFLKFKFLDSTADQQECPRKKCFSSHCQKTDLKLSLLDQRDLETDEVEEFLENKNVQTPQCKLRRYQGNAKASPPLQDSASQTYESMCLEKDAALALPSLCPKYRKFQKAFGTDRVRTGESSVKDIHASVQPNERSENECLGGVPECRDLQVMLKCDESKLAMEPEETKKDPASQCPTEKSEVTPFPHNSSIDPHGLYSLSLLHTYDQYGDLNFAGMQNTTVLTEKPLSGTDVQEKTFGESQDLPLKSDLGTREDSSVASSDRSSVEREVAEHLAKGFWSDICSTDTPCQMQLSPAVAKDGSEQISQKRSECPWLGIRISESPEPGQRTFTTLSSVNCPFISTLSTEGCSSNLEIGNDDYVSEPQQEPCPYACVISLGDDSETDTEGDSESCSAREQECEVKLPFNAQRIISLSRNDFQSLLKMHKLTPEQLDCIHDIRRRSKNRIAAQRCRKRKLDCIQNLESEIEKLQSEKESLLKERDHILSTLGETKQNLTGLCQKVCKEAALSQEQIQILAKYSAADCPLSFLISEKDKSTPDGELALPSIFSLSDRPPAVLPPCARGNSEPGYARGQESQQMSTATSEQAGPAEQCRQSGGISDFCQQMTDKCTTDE
Sequence of Kelch-like ECH-associated protein 1 (Homo sapiens) (Q14145 whole entry, the tested form may be a part): as the sequence (Q14145 whole entry) above

SMILES	EC50 [1]	pIC50 [2]	IC50 (Keap1/Nrf2)	fold change (FC) (Homo sapiens [3])	solubility kinetic [4]	chromatographic logD [5]	Activity [6]	Activity [7]	IC50 (BACH1/MafK)	also measured
CN(C)c1c(N(C)CCCNC(=S)SC[C@H](NC(=O)CC[C@H](N)C(=O)O)C(=O)NCC(=O)O)c(=O)c1=O	1580 nM	–	–	–	–	–	–	–	–	–
CC(=O)N[C@@H](CSC(=S)NCCCC[S+](C)[O-])C(=O)O (stereo partly specified)	1580 nM	< 4	> 100000 nM	5.8	≥ 357 µM	-0.67	–	–	–	–
CN(C)c1c(N(C)CCCN=C=S)c(=O)c1=O	1580 to 1660 nM	4.3	> 100000 nM	24.9 to 25	≥ 394 µM	2.14 to 2.39	Active	Active	3160 nM	solubility thermodynamic [8]: 8000 µg/mL (≈ 31.6 mM); Stability [9]: Stable; Stability [10]: Stable; Papp A→B [11]: 12.5 ×10⁻⁶ cm/s; Papp B→A [12]: 7.67 ×10⁻⁶ cm/s; Activity (Homo sapiens [13]): Dose-dependent effect; inhibition (Mus musculus [14]): Dose-dependent effect; inhibition (Mus musculus [15]): Active; inhibition (Mus musculus [16]): Active; inhibition (Mus musculus [17]): Active; Drug metabolism [18]: Metabolite_Detected; Drug metabolism [19]: Metabolite_Detected
C[S+]([O-])CCCCN=C=S (racemic) [SULFORAPHANE]	1580 to 2090 nM	< 4	–	–	271 µM (≈ 48 µg/mL)	–	Active	Active	15800 nM	–
C[S+]([O-])CCCCNC(=S)SC[C@H](NC(=O)CC[C@H](N)C(=O)O)C(=O)NCC(=O)O (stereo partly specified)	1580 nM	< 4	> 100000 nM	5.8	≥ 290 µM	-0.75	–	–	–	–
CC(=O)N[C@@H](CSC(=S)NCCCN(C)c1c(N(C)C)c(=O)c1=O)C(=O)O	1580 nM	–	–	–	–	–	–	–	–	–
